The test concerns MV4:11 human cancer cell lines. Put plainly: Cellular viability / anti-proliferative activity (CellTiter-Glo). It is filed as cell-based. The settings on record: MV4-11, 120 h, MV-4-11 cells, 5 day protocol, mean of minimum two replicates, read-out: GI50 on cellular proliferation of MV4:11 human cancer cell lines. In short, it runs like this: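 MV-4-11 cells in IMDM/10% FBS, 200 cells per well, exposed 5 days to 22 two-fold dilutions from 30 μM (0.3% DMSO final). Viability read by CellTiter-Glo luminescence; GI50 from sigmoidal dose-response, mean of at least two replicates.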
In general terms: In ATP-based viability assays light output follows the ATP content of the culture.

As for `CCc1cc(C(=O)NCCOC)c2nccc(N3CCOc4c(cc(Cn5ccnc5)cc4-c4cn(C)nc4C(F)(F)F)C3=O)c2c1` [Example 74, 4-(7-((1H-imidazol-1-yl)methyl)-9-(1-methyl-3-(trifluoromethyl)-1H-pyrazol-4-yl)-5-oxo-2,3-dihydrobenzo[f][1,4]oxazepin-4(5H)-yl)-6-ethyl-N-(2-methoxyethyl)quinoline-8-carboxamide], the GI50 came to 458 nM.

The values above are taken from US12577227B2, “WDR5 inhibitors and modulators” (Vanderbilt University, priority 2019, dated 2026).
